Measured values as given in patent US8497385B2, “Bryostatin analogues, synthetic methods and uses” (The Board of Trustees of the Leland Stanford Junior …, priority 2007, dated 2013).

Key:
[1] = target: PKCδ-C1B (Homo sapiens (Human), UniProt Q05655); test: PKCδ-C1B Assay; assay type: binding
[2] = tested on: P388 cell line; test: P388 Murine Lymphocytic Leukemia Cell Assay; assay type: cell-based
Description: Cells from a P388 cell line (CellGate, Inc., Sunnyvale, Calif.) are grown in RPMI 1640 cell medium containing fetal calf serum (10%), L-glutamine, penicillin, streptomycin and are split twice weekly. All compounds are first diluted with DMSO. Later serial dilutions are done with a phosphate buffer solution (HYQ DPBS modified phosphate buffered saline). All dilutions are done in glass vials and the final DMSO concentration is always below 0.5% by volume. Final two-fold dilutions are done in a 96 well plate using cell media so that each well contains 50 μL. All compounds are assayed in quadruplicate over 12 concentrations. Cell concentration is measured using a hemacytometer and the final cell concentration is adjusted to 1×10^4 cells/mL with cell medium. The resulting solution of cells (50 μL) is then added to each well and the plates are incubated for 5 days in a 37° C., 5% CO2, humidified incubator (Sanyo CO2 incubator). MTT solution (3-[4,5-dimethylthiazol-2-yl]-2,5-diphenyltetrazolium bromide, 10 μL) is then added to each well and the plates are re-incubated under identical conditions for 2 h. To each well is then added acidified isopropanol (150 μL of i-PrOH solution containing 0.05 N HCl) and mixed thoroughly. The plates are then scanned at 595 nm and the absorbances are read (Wallac Victor 1420 Multilabel Counter). The resulting data is then analyzed to determine an ED50 value using the Prism software package (GraphPad).

[3] = tested on: CCRF-CEM; test: NCI growth inhibition, CCRF-CEM (Leukemia); assay type: cell-based, human
[4] = tested on: HL-60(TB); assay type: cell-based, human
[5] = tested on: K-562; test: NCI growth inhibition, K-562 (Leukemia); assay type: cell-based, human
[6] = tested on: RPMI-8226; test: NCI growth inhibition, RPMI-8226 (Leukemia); assay type: cell-based, human
[7] = tested on: SR; test: NCI growth inhibition, SR (Leukemia); assay type: cell-based, human
[8] = tested on: A549/ATCC; test: NCI growth inhibition, A549/ATCC (NSC Lung); assay type: cell-based, human
[9] = tested on: NCI-H322M; test: NCI growth inhibition, NCI-H322M (NSC Lung); assay type: cell-based, human
[10] = tested on: HCT-116; test: NCI growth inhibition, HCT-116 (Colon); assay type: cell-based, human
[11] = tested on: HCT-15; test: NCI growth inhibition, HCT-15 (Colon); assay type: cell-based, human
[12] = tested on: HT29; test: NCI growth inhibition, HT29 (Colon); assay type: cell-based, human
[13] = tested on: SW-620; test: NCI growth inhibition, SW-620 (Colon); assay type: cell-based, human
[14] = tested on: SF-268; test: NCI growth inhibition, SF-268 (CNS); assay type: cell-based, human
[15] = tested on: SF-539; test: NCI growth inhibition, SF-539 (CNS); assay type: cell-based, human
[16] = tested on: SNB-75; test: NCI growth inhibition, SNB-75 (CNS); assay type: cell-based, human
[17] = tested on: U251; test: NCI growth inhibition, U251 (CNS); assay type: cell-based, human
[18] = tested on: PC-3; test: NCI growth inhibition, PC-3 (Prostate); assay type: cell-based, human
[19] = tested on: DU-145; test: NCI growth inhibition, DU-145 (Prostate); assay type: cell-based, human
[20] = tested on: SK-MEL-28; test: NCI growth inhibition, SK-MEL-28 (Melanoma); assay type: cell-based, human
[21] = tested on: IGROVI; test: NCI growth inhibition, IGROVI (Ovarian); assay type: cell-based, human
[22] = tested on: OVCAR-3; test: NCI growth inhibition, OVCAR-3 (Ovarian); assay type: cell-based, human
[23] = tested on: OVCAR-4; test: NCI growth inhibition, OVCAR-4 (Ovarian); assay type: cell-based, human
[24] = tested on: OVCAR-5; test: NCI growth inhibition, OVCAR-5 (Ovarian); assay type: cell-based, human
[25] = tested on: SK-OV-3; test: NCI growth inhibition, SK-OV-3 (Ovarian); assay type: cell-based, human
[26] = tested on: 786-0; test: NCI growth inhibition, 786-0 (Renal); assay type: cell-based, human
[27] = tested on: A498; test: NCI growth inhibition, A498 (Renal); assay type: cell-based, human
[28] = tested on: UO-31; test: NCI growth inhibition, UO-31 (Renal); assay type: cell-based, human
[29] = tested on: MCF7; test: NCI growth inhibition, MCF7 (Breast); assay type: cell-based, human
[30] = tested on: MDA-MB-435; test: NCI growth inhibition, MDA-MB-435 (Breast); assay type: cell-based, human
[31] = tested on: BT-549; test: NCI growth inhibition, BT-549 (Breast); assay type: cell-based, human
[32] = tested on: T-47D; test: NCI growth inhibition, T-47D (Breast); assay type: cell-based, human
[33] = 702.1 vs C26 methyl-containing analogue, 48, 49 vs other C20 esters

PKCδ-C1B, sequence (Q05655 whole entry, looked up): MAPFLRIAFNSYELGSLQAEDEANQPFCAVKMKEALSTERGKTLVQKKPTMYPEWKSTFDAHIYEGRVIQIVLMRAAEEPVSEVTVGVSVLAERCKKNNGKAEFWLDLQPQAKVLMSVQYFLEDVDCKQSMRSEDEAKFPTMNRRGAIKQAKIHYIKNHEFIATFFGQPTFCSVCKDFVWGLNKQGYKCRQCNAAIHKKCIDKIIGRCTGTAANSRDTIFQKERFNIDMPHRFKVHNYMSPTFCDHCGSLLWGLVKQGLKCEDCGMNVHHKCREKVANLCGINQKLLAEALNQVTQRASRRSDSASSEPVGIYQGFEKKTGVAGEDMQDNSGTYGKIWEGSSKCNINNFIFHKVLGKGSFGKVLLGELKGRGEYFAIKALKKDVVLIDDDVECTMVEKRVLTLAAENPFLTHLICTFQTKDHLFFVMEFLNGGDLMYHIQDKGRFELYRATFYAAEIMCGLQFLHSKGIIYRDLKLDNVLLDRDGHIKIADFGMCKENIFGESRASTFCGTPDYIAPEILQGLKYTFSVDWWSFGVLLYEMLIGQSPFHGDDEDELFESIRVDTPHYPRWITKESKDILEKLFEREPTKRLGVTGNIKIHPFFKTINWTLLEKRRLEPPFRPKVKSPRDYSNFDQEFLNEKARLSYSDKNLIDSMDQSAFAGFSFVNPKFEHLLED

CCCCCCCC(=O)OC1C(=CC(=O)OC)CC2CC(CO)OC(=O)CC(O)CC3CCCC(CC4CCOC(C=CC(C)(C)C1(O)O2)O4)O3 (centres unmarked) [Formula IIa (702.1)]
activity in PKCδ-C1B assay relative to comparison analogues [1, 33]: significantly higher activity
Ki ([1]; competition with tritiated phorbol 12,13-dibutyrate): 0.3 ± 0.07 nM
activity in P388 assay relative to comparison analogues [2, 33]: significantly higher activity
P388 Assay ED50 ([2]; 5 days incubation, MTT): 17 nM
Difference of GI50 (log), Desmethyl vs Bryo-1 [3]: −0.51
GI50 ([3]; Leukemia): −5.81 log of molar concentration
Difference of GI50 (log), Desmethyl vs Bryo-1 [4]: −0.14
GI50 [4]: −5.84 log of molar concentration
Difference of GI50 (log), Desmethyl vs Bryo-1 ([5]; K-562): −2.10
GI50 ([5]; K-562, Leukemia): −7.5 log of molar concentration
more active than bryostatin-1 ([5]; K-562, Leukemia): more than 2 orders of magnitude
Difference of GI50 (log), Desmethyl vs Bryo-1 ([6]; RPMI-8226): −0.82
GI50 ([6]; RPMI-8226, Leukemia): −5.82 log of molar concentration
Difference of GI50 (log), Desmethyl vs Bryo-1 [7]: −0.10
GI50 ([7]; Leukemia): −5.1 log of molar concentration
Difference of GI50 (log), Desmethyl vs Bryo-1 [8]: −1.42
GI50 ([8]; NSC Lung): −6.62 log of molar concentration
Difference of GI50 (log), Desmethyl vs Bryo-1 [9]: 1.62
GI50 ([9]; NSC Lung): −4.38 log of molar concentration
Difference of GI50 (log), Desmethyl vs Bryo-1 ([10]; HCT-116): −0.02
GI50 ([10]; HCT-116, Colon): −5.32 log of molar concentration
GI50 [11]: −4.76 log of molar concentration
Difference of GI50 (log), Desmethyl vs Bryo-1 ([12]; HT29): −0.25
GI50 ([12]; HT29, Colon): −5.55 log of molar concentration
Difference of GI50 (log), Desmethyl vs Bryo-1 ([13]; SW-620): 0.38
GI50 ([13]; SW-620, Colon): −5.12 log of molar concentration
Difference of GI50 (log), Desmethyl vs Bryo-1 ([14]; SF-268): 0.13
GI50 ([14]; SF-268, CNS): −4.97 log of molar concentration
Difference of GI50 (log), Desmethyl vs Bryo-1 ([15]; SF-539): −0.77
GI50 ([15]; SF-539, CNS): −5.77 log of molar concentration
Difference of GI50 (log), Desmethyl vs Bryo-1 ([16]; SNB-75): 0.53
GI50 ([16]; SNB-75, CNS): −4.97 log of molar concentration
Difference of GI50 (log), Desmethyl vs Bryo-1 ([17]; U251): −0.30
GI50 ([17]; U251, CNS): −5.4 log of molar concentration
Difference of GI50 (log), Desmethyl vs Bryo-1 ([18]; PC-3): −0.30
GI50 ([18]; PC-3, Prostate): −5.6 log of molar concentration
Difference of GI50 (log), Desmethyl vs Bryo-1 ([19]; DU-145): −0.02
GI50 ([19]; DU-145, Prostate): −5.02 log of molar concentration
Difference of GI50 (log), Desmethyl vs Bryo-1 ([20]; SK-MEL-28): 0.43
GI50 ([20]; SK-MEL-28, Melanoma): −4.67 log of molar concentration
Difference of GI50 (log), Desmethyl vs Bryo-1 [21]: 0.42
GI50 ([21]; Ovarian): −4.88 log of molar concentration
Difference of GI50 (log), Desmethyl vs Bryo-1 ([22]; OVCAR-3): 0.27
GI50 ([22]; OVCAR-3, Ovarian): −4.83 log of molar concentration
Difference of GI50 (log), Desmethyl vs Bryo-1 ([23]; OVCAR-4): 0.35
GI50 ([23]; OVCAR-4, Ovarian): −5.15 log of molar concentration
Difference of GI50 (log), Desmethyl vs Bryo-1 ([24]; OVCAR-5): −0.28
GI50 ([24]; OVCAR-5, Ovarian): −5.28 log of molar concentration
Difference of GI50 (log), Desmethyl vs Bryo-1 ([25]; SK-OV-3): 0.80
GI50 ([25]; SK-OV-3, Ovarian): −4.3 log of molar concentration
Difference of GI50 (log), Desmethyl vs Bryo-1 ([26]; 786-0): −0.26
GI50 ([26]; 786-0, Renal): −5.46 log of molar concentration
Difference of GI50 (log), Desmethyl vs Bryo-1 ([27]; A498): −1.38
GI50 ([27]; A498, Renal): −6.38 log of molar concentration
Difference of GI50 (log), Desmethyl vs Bryo-1 ([28]; UO-31): 0.75
GI50 ([28]; UO-31, Renal): −4.85 log of molar concentration
Difference of GI50 (log), Desmethyl vs Bryo-1 ([29]; MCF7): −0.20
GI50 ([29]; MCF7, Breast): −5.4 log of molar concentration
Difference of GI50 (log), Desmethyl vs Bryo-1 ([30]; MDA-MB-435): −2.56
GI50 ([30]; MDA-MB-435, Breast): −7.66 log of molar concentration
more active than bryostatin-1 ([30]; MDA-MB-435, Breast): more than 2 orders of magnitude
Difference of GI50 (log), Desmethyl vs Bryo-1 ([31]; BT-549): 0.39
GI50 ([31]; BT-549, Breast): −4.71 log of molar concentration
Difference of GI50 (log), Desmethyl vs Bryo-1 [32]: 0.18
GI50 ([32]; Breast): −5.02 log of molar concentration
